Test results reported in patent US20090069565A1, “NEW INDOLE DERIVATIVES AS FACTOR XA INHIBITORS” (priority 2001, published 2009).
Like-named read-outs stand apart in the source and are kept apart here.

Biological target: human factor Xa (Homo sapiens, UniProt P00742)
Test: Factor Xa assay (chromogenic, substrate S-2765);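 note: purified enzyme preincubated with inhibitor for 10 min before substrate addition, final reaction volume 100 µl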
Assay type: biochemical
[1] = inhibition constant for factor Xa, purified enzyme 0.5 nM, substrate S-2765 140 μM, 25° C., pH 7.8, Ki=IC50/{1+(substrate concentration/Km)}, read-out: Ki(FXa)

Sequence of human factor Xa (P00742 235-488 limits assumed): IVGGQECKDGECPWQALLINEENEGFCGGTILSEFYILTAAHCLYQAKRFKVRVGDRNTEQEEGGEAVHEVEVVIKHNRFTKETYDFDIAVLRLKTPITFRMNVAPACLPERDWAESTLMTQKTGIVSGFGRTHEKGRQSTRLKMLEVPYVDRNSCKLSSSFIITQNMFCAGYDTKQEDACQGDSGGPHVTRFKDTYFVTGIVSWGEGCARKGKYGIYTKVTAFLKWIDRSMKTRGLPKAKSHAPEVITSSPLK
Sequence of human factor Xa (P00742 41-179 partner limits assumed): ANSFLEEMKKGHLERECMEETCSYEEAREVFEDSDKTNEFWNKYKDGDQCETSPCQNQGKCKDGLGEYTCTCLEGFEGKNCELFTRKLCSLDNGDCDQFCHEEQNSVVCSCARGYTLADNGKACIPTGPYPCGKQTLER

Row | Compound | Ki (read-out: Ki(FXa)) [µM] | other results
1 | CC(C)N1CCC(NC(=O)c2cc3cc(S(C)(=O)=O)ccc3n2Cc2cc(-c3ccc(Cl)s3)on2)CC1 [Example 2] | – | Ki [1]: 0.02 µM
2 | CC(C)N1CCC(NC(=O)c2cc3cc([N+](=O)[O-])ccc3n2Cc2cc(-c3ccc(Cl)s3)on2)CC1 [Example 3] | – | Ki [1]: 0.001 µM
3 | CC(C)N1CCC(NC(=O)c2cc3cc(OCc4ccccc4)ccc3n2Cc2cc(-c3ccc(Cl)s3)on2)CC1 [Example 4] | – | Ki [1]: 0.834 µM
4 | CC(C)N1CCC(NC(=O)c2cc3cc(Cl)ccc3n2Cc2cc(-c3ccc(Cl)s3)on2)CC1 [Example 5] | – | Ki [1]: 0.005 µM
5 | Cc1ccc2c(c1)cc(C(=O)NC1CCN(C(C)C)CC1)n2Cc1cc(-c2ccc(Cl)s2)on1 [Example 8] | – | Ki [1]: 0.009 µM
6 | COc1cc2cc(C(=O)NC3CCN(C(C)C)CC3)n(Cc3cc(-c4ccc(Cl)s4)on3)c2cc1OC [Example 10] | 0.182 | –
7 | CC(C)N1CCC(NC(=O)c2cc3cccc([N+](=O)[O-])c3n2Cc2cc(-c3ccc(Cl)s3)on2)CC1 [Example 11] | – | Ki [1]: 0.0001 µM
8 | CC(C)N1CCC(NC(=O)c2cc3cc(OC(F)(F)F)ccc3n2Cc2cc(-c3ccc(Cl)s3)on2)CC1 [Example 12] | 0.114 | –
9 | CC(C)N1CCC(NC(=O)c2cc3cccc(NC(=O)C(C)(C)C)c3n2Cc2cc(-c3ccc(Cl)s3)on2)CC1 [Example 14] | 1.72 | –
10 | CC(C)N1CCC(NC(=O)c2c(-c3ccccc3)c3ccccc3n2Cc2cc(-c3ccc(Cl)s3)on2)CC1 [Example 16] | – | Ki [1]: 0.055 µM
11 | COc1cc2cc(C(=O)NC3CCN(C(C)C)CC3)n(Cc3cc(-c4ccc(Cl)s4)on3)c2cc1O [Example 17] | 1.97 | –
12 | CC(C)N1CCC(NC(=O)c2cc3cccc(Cl)c3n2Cc2cc(-c3ccc(Cl)s3)on2)CC1 [Example 20] | – | Ki: 0.007 µM
13 | CC(C)N1CCC(NC(=O)c2cc3ccc(Cl)cc3n2Cc2cc(-c3ccc(Cl)s3)on2)CC1 [Example 21] | – | Ki [1]: 0.007 µM
14 | CC(C)N1CCC(NC(=O)c2cc3cc(F)ccc3n2Cc2cc(-c3ccc(Cl)s3)on2)CC1 [Example 23] | – | Ki [1]: 0.003 µM
15 | CC(C)N1CCC(NC(=O)c2cc3cc(F)cc(F)c3n2Cc2cc(-c3ccc(Cl)s3)on2)CC1 [Example 26] | 0.0001 | –
16 | CC(C)N1CCC(NC(=O)c2cc3cc([N+](=O)[O-])cc([N+](=O)[O-])c3n2Cc2cc(-c3ccc(Cl)s3)on2)CC1 [Example 27] | 0.0002 | –
17 | O=C(NC1CCN(c2ccncc2)CC1)c1cc2ccccc2n1Cc1cc(-c2ccc(Cl)s2)on1 [Example 28, 1-[5-(5-Chloro-thiophen-2-yl)-isoxazol-3-ylmethyl]-1H-indole-2-carboxylic acid (3,4,5,6-tetrahydro-2H-[1,4′]bipyridinyl-4-yl)-amide] | – | Ki [1]: 0.014 µM
18 | Cc1cccc2cc(C(=O)NC3CCN(c4ccncc4)CC3)n(Cc3cc(-c4ccc(Cl)s4)on3)c12 [Example 29, 1-[5-(5-Chloro-thiophen-2-yl)-isoxazol-3-ylmethyl]-7-methyl-1H-indole-2-carboxylic acid (3,4,5,6-tetrahydro-2H-[1,4′]bipyridinyl-4-yl)-amide] | 0.019 | –
19 | O=C(NC1CCN(c2ccncc2)CC1)c1cc2cc([N+](=O)[O-])ccc2n1Cc1cc(-c2ccc(Cl)s2)on1 [Example 30, 1-[5-(5-Chloro-thiophen-2-yl)-isoxazol-3-ylmethyl]-5-nitro-1H-indole-2-carboxylic acid (3,4,5,6-tetrahydro-2H-[1,4′]bipyridinyl-4-yl)-amide] | 0.025 | –

Row | Compound | Ki (read-out: Ki(FXa)) [µM] | other results
20 | O=C(c1cc2ccccc2n1Cc1cc(-c2ccc(Cl)s2)on1)N1CCC(Nc2ccncc2)CC1 [Example 31, {1-[5-(5-Chloro-thiophen-2-yl)-isoxazol-3-ylmethyl]-1H-indol-2-yl}-[4-(pyridin-4-ylamino)-piperidin-1-yl]-methanone] | – | Ki [1]: 0.018 µM
21 | O=C(c1cc2cc([N+](=O)[O-])ccc2n1Cc1cc(-c2ccc(Cl)s2)on1)N1CCC(Nc2ccncc2)CC1 [Example 32, {1-[5-(5-Chloro-thiophen-2-yl)-isoxazol-3-ylmethyl]-5-nitro-1H-indol-2-yl}-[4-(pyridin-4-ylamino)-piperidin-1-yl]-methanone] | 0.037 | –
22 | Cc1cccc2cc(C(=O)N3CCC(Nc4ccncc4)CC3)n(Cc3cc(-c4ccc(Cl)s4)on3)c12 [Example 33, {1-[5-(5-Chloro-thiophen-2-yl)-isoxazol-3-ylmethyl]-7-methyl-1H-indol-2-yl}-[4-(pyridin-4-ylamino)-piperidin-1-yl]-methanone] | 0.011 | –
23 | Cc1cccc2cc(C(=O)N3CCC(NC(C)C)CC3)n(Cc3cc(-c4ccc(Cl)s4)on3)c12 [Example 35, {1-[5-(5-Chloro-thiophen-2-yl)-isoxazol-3-ylmethyl]-7-methyl-1H-indol-2-yl}-(4-isopropylamino-piperidin-1-yl)-methanone] | 0.502 | –
24 | CCN1CCC(NC(=O)c2cc3ccccc3n2Cc2cc(-c3ccc(Cl)s3)on2)CC1 [Example 36, 1-[5-(5-Chloro-thiophen-2-yl)-isoxazol-3-ylmethyl]-1H-indole-2-carboxylic acid (1-ethyl-piperidin-4-yl)-amide] | – | Ki [1]: 0.018 µM
25 | CCN1CCC(NC(=O)c2cc3cccc(C)c3n2Cc2cc(-c3ccc(Cl)s3)on2)CC1 [Example 37, 1-[5-(5-Chloro-thiophen-2-yl)-isoxazol-3-ylmethyl]-7-methyl-1H-indole-2-carboxylic acid (1-ethyl-piperidin-4-yl)-amide] | 0.003 | –
26 | O=C(c1cc2ccccc2n1Cc1cc(-c2ccc(Cl)s2)on1)N1CCC(N2CCCC2)CC1 [Example 38, {1-[5-(5-Chloro-thiophen-2-yl)-isoxazol-3-ylmethyl]-1H-indol-2-yl}-(4-pyrrolidin-1-yl-piperidin-1-yl)-methanone] | 0.701 | –
27 | CN1CCC(N2CCN(C(=O)c3cc4ccccc4n3Cc3cc(-c4ccc(Cl)s4)on3)CC2)CC1 [Example 39, {1-[5-(5-Chloro-thiophen-2-yl)-isoxazol-3-ylmethyl]-1H-indol-2-yl}-[4-(1-methyl-piperidin-4-yl)-piperazin-1-yl]-methanone] | 2 | –
28 | O=C(NCC1CC(c2ccncc2)=NO1)c1cc2ccccc2n1Cc1cc(-c2ccc(Cl)s2)on1 (centres unmarked) [Example 41, 1-[5-(5-Chloro-thiophen-2-yl)-isoxazol-3-ylmethyl]-1H-indole-2-carboxylic acid (3-pyridin-4-yl-4,5-dihydro-isoxazol-5-ylmethyl)-amide] | 1.03 | –
29 | O=C(c1cc2ccccc2n1Cc1cc(-c2ccc(Cl)s2)on1)N1CCN(Cc2ccncc2)CC1 [Example 43, {1-[5-(5-Chloro-thiophen-2-yl)-isoxazol-3-ylmethyl]-1H-indol-2-yl}-(4-pyridin-4-ylmethyl-piperazin-1-yl)-methanone] | 0.504 | –
30 | O=C(NCC1CCN(c2ccncc2)CC1)c1cc2ccccc2n1Cc1cc(-c2ccc(Cl)s2)on1 [Example 47, 1-[5-(5-Chloro-thiophen-2-yl)-isoxazol-3-ylmethyl]-1H-indole-2-carboxylic acid (3,4,5,6-tetrahydro-2H-[1,4′]bipyridinyl-4-ylmethyl)-amide] | – | Ki [1]: 0.064 µM
31 | O=C(NC1CCN(C2CC2)CC1)c1cc2ccccc2n1Cc1cc(-c2ccc(Cl)s2)on1 [Example 48, 1-[5-(5-Chloro-thiophen-2-yl)-isoxazol-3-ylmethyl]-1H-indole-2-carboxylic acid (1-cyclopropyl-piperidin-4-yl)-amide] | – | Ki [1]: 0.027 µM
32 | COc1cccc(Cn2c(C(=O)NCC3CCN(c4ccncc4)CC3)cc3ccccc32)c1 [Example 55] | 1.7 | –
33 | COc1cccc(Cn2c(C(=O)NC3CCN(C(C)C)CC3)cc3c(OC)cccc32)c1 [Example 66, 4-Methoxy-1-(3-methoxy-benzyl)-1H-indole-2-carboxylic acid (1-isopropyl-piperidin-4-yl)-amide] | 0.043 | –
34 | COc1cccc(Cn2c(C(=O)NC3CCN(C(C)C)CC3)cc3cc(Cl)ccc32)c1 [Example 67, 5-Chloro-1-(3-methoxy-benzyl)-1H-indole-2-carboxylic acid (1-isopropyl-piperidin-4-yl)-amide] | 0.187 | –
35 | COc1cccc(Cn2c(C(=O)NC3CCN(C(C)C)CC3)cc3cc(C)ccc32)c1 [Example 69, 1-(3-Methoxy-benzyl)-5-methyl-1H-indole-2-carboxylic acid (1-isopropyl-piperidin-4-yl)-amide] | 0.159 | –
36 | COc1cccc(Cn2c(C(=O)NC3CCN(C(C)C)CC3)cc3cc(OCc4ccccc4)ccc32)c1 [Example 70] | 0.114 | –
37 | COc1cccc(Cn2c(C(=O)NC3CCN(C(C)C)CC3)cc3cc([N+](=O)[O-])ccc32)c1 [Example 71, 1-(3-Methoxy-benzyl)-5-nitro-1H-indole-2-carboxylic acid (1-isopropyl-piperidin-4-yl)-amide] | 0.277 | –
38 | COc1cccc(Cn2c(C(=O)NC3CCN(C(C)C)CC3)cc3cc(OC)ccc32)c1 [Example 72, 5-Methoxy-1-(3-methoxy-benzyl)-1H-indole-2-carboxylic acid (1-isopropyl-piperidin-4-yl)-amide] | 0.167 | –

Further lines, with some results ahead:

Row | Ki (read-out: Ki(FXa)) [µM] | Compound | other results
39 | 0.013 | COc1ccc2c(c1)cc(C(=O)NC1CCN(C(C)C)CC1)n2Cc1cc(-c2ccc(Cl)s2)on1 [Example 6] | –
40 | 0.004 | COc1ccc2cc(C(=O)NC3CCN(C(C)C)CC3)n(Cc3cc(-c4ccc(Cl)s4)on3)c2c1 [Example 7] | –
41 | 0.003 | COc1cc(OC)c2cc(C(=O)NC3CCN(C(C)C)CC3)n(Cc3cc(-c4ccc(Cl)s4)on3)c2c1 [Example 9] | –
42 | 0.0035 | COc1cccc2c1cc(C(=O)NC1CCN(C(C)C)CC1)n2Cc1cc(-c2ccc(Cl)s2)on1 [Example 15] | –
43 | 0.016 | CC(C)N1CCC(NC(=O)c2cc3c(F)cc(F)cc3n2Cc2cc(-c3ccc(Cl)s3)on2)CC1 [Example 18] | –
44 | 0.05 | CC(C)N1CCC(NC(=O)c2cc3c(OCc4ccccc4)cccc3n2Cc2cc(-c3ccc(Cl)s3)on2)CC1 [Example 19] | –
45 | 0.217 | CCc1ccc2c(c1)cc(C(=O)NC1CCN(C(C)C)CC1)n2Cc1cc(-c2ccc(Cl)s2)on1 [Example 22] | –
46 | 0.132 | CC(C)N1CCC(NC(=O)c2c(-c3ccccc3)c3cc([N+](=O)[O-])ccc3n2Cc2cc(-c3ccc(Cl)s3)on2)CC1 [Example 24] | –
47 | 0.336 | CC(C)N1CCC(NC(=O)c2c(-c3ccccc3)c3cc(Cl)ccc3n2Cc2cc(-c3ccc(Cl)s3)on2)CC1 [Example 25] | –
